Test results taken from ChEMBL document CHEMBL3098096, “Design, synthesis and antibacterial activities of 5-(pyrazin-2-yl)-4H-1,2,4-triazole-3-thiol derivatives containing Schiff base formation as FabH inhibitory” (Bioorg Med Chem Lett, 2014).
pIC50: −log10 of the molar value. Values after ≈ are worked out from the molar mass of the structure shown.

What was measured:
[1] = test system: Escherichia coli; experiment: Antimicrobial activity against Escherichia coli ATCC 25922 assessed as […] growth inhibition after 24 hrs by two-fold serial broth dilution method; format: functional; details: ATCC 25922, 24 h
[2] = test system: Staphylococcus aureus; experiment: Antimicrobial activity against Staphylococcus aureus ATCC 25923 assessed as […] growth inhibition after 24 hrs by two-fold serial broth dilution method; format: functional; details: ATCC 25923, 24 h
[3] = test system: Bacillus amyloliquefaciens; experiment: Antimicrobial activity against Bacillus amyloliquefaciens 23842 assessed as […] growth inhibition after 24 hrs by two-fold serial broth dilution method; format: functional; details: Bacillus amyloliquefaciens, 23842, 24 h
[4] = test system: NIH3T3; experiment: Cytotoxicity against mouse NIH/3T3 cells after 24 hrs by MTT assay; format: cell-based; details: NIH3T3, 24 h
[5] = target: T1, 3-oxoacyl-[acyl-carrier-protein] synthase 3 (Escherichia coli, UniProt C3TDZ2); experiment: Inhibition of Escherichia coli FabH overexpressed in Escherichia coli DH10B cells assessed as incorporation of [3H] in the product after 25 mins by liquid scintillation counting analysis
T1 sequence (C3TDZ2 whole entry): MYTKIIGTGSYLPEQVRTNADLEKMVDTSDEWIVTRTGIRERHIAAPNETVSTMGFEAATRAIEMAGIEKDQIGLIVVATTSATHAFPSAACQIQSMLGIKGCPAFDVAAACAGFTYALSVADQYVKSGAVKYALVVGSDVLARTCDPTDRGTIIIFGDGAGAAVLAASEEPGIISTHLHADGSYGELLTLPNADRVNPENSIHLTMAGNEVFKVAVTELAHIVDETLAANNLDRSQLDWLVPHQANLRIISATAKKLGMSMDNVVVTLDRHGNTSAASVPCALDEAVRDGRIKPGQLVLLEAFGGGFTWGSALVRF

[6] = Toxicity in human erythrocytes assessed as hemolytic activity by spectrophotometric analysis; format: cell-based; details: erythrocyte
[7] = test system: Bacillus subtilis; experiment: Antimicrobial activity against Bacillus subtilis ATCC 530 assessed as […] growth inhibition after 24 hrs by two-fold serial broth dilution method; format: functional; details: ATCC 530, 24 h
[8] = test system: Pseudomonas aeruginosa; experiment: Antimicrobial activity against Pseudomonas aeruginosa ATCC 27853 assessed as […] growth inhibition after 24 hrs by two-fold serial broth dilution method; format: functional; details: ATCC 27853, 24 h

Structure (SMILES)	MIC [1] [µg/mL]	MIC [2] [µg/mL]	MIC [3] [µg/mL]	pIC50 [4]	pIC50 [5]	LC30 [6] [µg/mL]	MIC [7] [µg/mL]	MIC [8] [µg/mL]
COc1ccc(/C=N/n2c(S)nnc2-c2cnccn2)cc1OC	25 (≈ 73 µM)	12.5 (≈ 36.5 µM)	25 (≈ 73 µM)	3.79	4.34	> 10000	25 (≈ 73 µM)	50 (≈ 146 µM)
COc1cc(OC)c(OC)cc1/C=N/n1c(S)nnc1-c1cnccn1	6.25 (≈ 16.8 µM)	25 (≈ 67.1 µM)	6.25 (≈ 16.8 µM)	3.85	4.89	> 10000	3.13 (≈ 8.4 µM)	12.5 (≈ 33.6 µM)
COc1cc(/C=N/n2c(S)nnc2-c2cnccn2)cc(OC)c1OC	6.25 (≈ 16.8 µM)	12.5 (≈ 33.6 µM)	25 (≈ 67.1 µM)	3.77	4.82	> 10000	6.25 (≈ 16.8 µM)	12.5 (≈ 33.6 µM)
COc1ccccc1/C=N/n1c(S)nnc1-c1cnccn1	12.5 (≈ 40 µM)	25 (≈ 80 µM)	25 (≈ 80 µM)	3.76	4.64	> 10000	25 (≈ 80 µM)	25 (≈ 80 µM)
COc1cccc(/C=N/n2c(S)nnc2-c2cnccn2)c1	25 (≈ 80 µM)	> 50	50 (≈ 160 µM)				50 (≈ 160 µM)	50 (≈ 160 µM)
O=[N+]([O-])c1ccc(/C=N/n2c(S)nnc2-c2cnccn2)cc1	25 (≈ 76.4 µM)	> 50	50 (≈ 153 µM)				25 (≈ 76.4 µM)	25 (≈ 76.4 µM)
Oc1ccc(/C=N/n2c(S)nnc2-c2cnccn2)cc1	12.5 (≈ 41.9 µM)	50 (≈ 168 µM)	25 (≈ 83.8 µM)	3.76	4.53	> 10000	25 (≈ 83.8 µM)	25 (≈ 83.8 µM)
Oc1ccccc1/C=N/n1c(S)nnc1-c1cnccn1	0.39 (≈ 1.31 µM)	1.56 (≈ 5.23 µM)	0.78 (≈ 2.61 µM)	3.88	5.28	> 10000	0.78 (≈ 2.61 µM)	1.56 (≈ 5.23 µM)
Oc1cccc(/C=N/n2c(S)nnc2-c2cnccn2)c1	25 (≈ 83.8 µM)	> 50	50 (≈ 168 µM)	3.82	4.32	> 10000	50 (≈ 168 µM)	25 (≈ 83.8 µM)
Oc1ccc(/C=N/n2c(S)nnc2-c2cnccn2)cc1O	12.5 (≈ 39.8 µM)	25 (≈ 79.5 µM)	25 (≈ 79.5 µM)	3.83	4.61	> 10000	25 (≈ 79.5 µM)	12.5 (≈ 39.8 µM)
Sc1nnc(-c2cnccn2)n1/N=C/C=C/c1ccccc1	12.5 (≈ 40.5 µM)	50 (≈ 162 µM)	50 (≈ 162 µM)				25 (≈ 81.1 µM)	25 (≈ 81.1 µM)
Sc1nnc(-c2cnccn2)n1/N=C/c1ccc(Br)cc1	50 (≈ 138 µM)	50 (≈ 138 µM)	25 (≈ 69.2 µM)				25 (≈ 69.2 µM)	50 (≈ 138 µM)
Sc1nnc(-c2cnccn2)n1/N=C/c1ccccc1	25 (≈ 88.5 µM)	50 (≈ 177 µM)	50 (≈ 177 µM)				25 (≈ 88.5 µM)	25 (≈ 88.5 µM)
Fc1ccc(/C=N/n2c(S)nnc2-c2cnccn2)cc1	25 (≈ 83.2 µM)	50 (≈ 166 µM)	50 (≈ 166 µM)				50 (≈ 166 µM)	> 50
Sc1nnc(-c2cnccn2)n1/N=C/c1ccc(Cl)cc1	50 (≈ 158 µM)	50 (≈ 158 µM)	50 (≈ 158 µM)	3.66	< 4.00	> 10000	> 50	> 50
Cc1ccc(/C=N/n2c(S)nnc2-c2cnccn2)cc1	12.5 (≈ 42.2 µM)	25 (≈ 84.4 µM)	25 (≈ 84.4 µM)	3.81	4.57	> 10000	25 (≈ 84.4 µM)	50 (≈ 169 µM)
COc1ccc(/C=N/n2c(S)nnc2-c2cnccn2)cc1	12.5 (≈ 40 µM)	50 (≈ 160 µM)	25 (≈ 80 µM)				50 (≈ 160 µM)	25 (≈ 80 µM)
Fc1ccccc1/C=N/n1c(S)nnc1-c1cnccn1	25 (≈ 83.2 µM)	50 (≈ 166 µM)	50 (≈ 166 µM)				50 (≈ 166 µM)	50 (≈ 166 µM)
Fc1cccc(/C=N/n2c(S)nnc2-c2cnccn2)c1	25 (≈ 83.2 µM)	50 (≈ 166 µM)	50 (≈ 166 µM)				> 50	> 50
Sc1nnc(-c2cnccn2)n1/N=C/c1ccc(Cl)cc1Cl	50 (≈ 142 µM)	50 (≈ 142 µM)	> 50	3.69	< 4.00	> 10000	> 50	> 50
NC[C@H]1O[C@H](O[C@H]2[C@H](O)[C@@H](O[C@H]3O[C@H](CO)[C@@H](O)[C@H](N)[C@H]3O)[C@H](N)C[C@@H]2N)[C@H](N)[C@@H](O)[C@@H]1O [BEKANAMYCIN]	3.13 (≈ 6.47 µM)	1.56 (≈ 3.23 µM)	1.56 (≈ 3.23 µM)	3.86	5.20	> 10000	3.13 (≈ 6.47 µM)	1.56 (≈ 3.23 µM)
